Measured values reported in US10517964B2, “Optical imaging probes, optical imaging systems, methods of optical imaging, and methods of using optical imaging probes” (priority 2011, dated 2019).

Experiments:
[1] = radioactive OI of 90YCl3 in mice; format: in vivo; settings: various time points p.i.
Procedure: Mice injected with ^90YCl3 (1.8-2.0 MBq each) were also imaged by an IVIS Spectrum system at different time points p.i. (FIG. 1.6e). […] The results obtained by the radioactive OI also agreed well with the previously reports which measured the in vivo behavior of ^90YCl3 by biodistribution study^21.
(§1) Radioactive optical imaging: In vivo radioactive OI was also performed with an IVIS Spectrum system. Wavelength-resolved spectral imaging was carried out suing a 18 narrow bands emission filters set (490-850 nm). Animals were placed in a light-tight chamber under isofluorane anesthesia. Each acquisition, with or without filters, took 1-5 min for all studies. Images were acquired and analyzed using Living Image 3.0 software (Caliper life sciences, Hopkinton, Mass.). Quantification of Radioactive OI images was corrected in accordance with radionuclides' respective physical decay properties. Optical signal was normalized to photons per second per centimeter square per steradian (p/s/cm^2/sr). Identical setting was used for in vitro Radioactive OI. For in vivo imaging study, normal mice or mice bearing either C6-fluc or PC3 (n=3 for each imaging probe) were injected via tail vein with Na^18F (5.3-5.7 MBq, 140-150 μCi), [^18F]FDG (10.4-11.3 MBq, 280-305 μCi), Na^131I (2.2-2.3 MBq, 59-61 μCi), ^90YCl3 (1.8-2.0 MBq, 48-54 μCi) or ^90Y-RGD-BBN (2.6-3.3 MBq, 70-90 μCi). […]

[2] = thyroid radioactive OI and SPECT/CT; format: in vivo, mice; settings: quantitative analysis of OI, 0.5-24 h
Source text: Iodine ion can accumulate in the thyroid, and Na^123/131I has been widely used for imaging thyroid function, treating thyroid cancer and sodium iodide symporter^15-17. Therefore, we then tested the SPECT probe, Na^131I, for thyroid radioactive OI. […] High imaging signal was found in the thyroid and bladder at earlier time points postinjection (p.i.). […] At the end of OI study, the mice were sacrificed and the neck and chest areas were opened to expose the internal organs. The thyroid can be easily differentiated (FIG. 1.5d).
as §1, with “OI.” for “OI. For in vivo imaging study, normal mice or mice bearing either C6-fluc or PC3 (n=3 for each imaging probe) were injected via tail vein with Na^18F (5.3-5.7 MBq, 140-150 μCi), [^18F]FDG (10.4-11.3 MBq, 280-305 μCi), Na^131I (2.2-2.3 MBq, 59-61 μCi), ^90YCl3 (1.8-2.0 MBq, 48-54 μCi) or ^90Y-RGD-BBN (2.6-3.3 MBq, 70-90 μCi).”

[3] = test system: C6-tk tumors (HSV1-tk reporter gene); assay: in vivo OI and PET imaging of mice bearing C6-tk and C6 tumors; settings: for tumor to normal tissue (T/N) ratio: n=6
Procedure: All animal studies were carried out in compliance with federal and local institutional rules for the conduct of animal experimentation. Mice bearing two tumors (C6-tk and C6) were then used for in vivo studies. The C6-tk (left) and C6 (right) cells were injected contra-laterally in the dorsal shoulder region of each mouse (2×10^6 cells/mouse; athymic nude mice were purchased from Charles River Laboratories, n=6). Approximately 10 days later, when tumor size reached about 1-1.5 cm in diameter, small animal PET and OI were performed using the mice and the PET probe [^18F]FHBG. Images at 1 h and 2 h were obtained by both OI and PET. Results are shown by average radiance (photon/second/cm^2/str) for OI and percentage of injected dose per gram (% ID/g) for PET based on the method previously described (13). […] The strong signals in the lower part of the mouse body [FIG. 2.2 (a)] are due to the presence of the radioactivity in the bladder. […] At 2 h post-injection, with the elimination of [^18F]FHBG, only C6-tk tumors can be clearly visualized in both imaging modalities (see FIG. 2.2).

[4] = test system: C6 cell line without transfection; assay: in vitro [18F]FHBG cell uptake, negative control cells; format: cell-based, rat; settings: non transfected C6 cells, 37° C., 15-120 min
Procedure: The in vitro [^18F]FHBG cell uptake study was performed as previously described with minor modifications (12). Briefly, C6-tk cells were seeded into 12-well plates at a density of 5×10^5 cells per well 12 h prior to the experiment. The C6 cell line without transfection was used as a negative control. The cells were then incubated with [^18F]FHBG ([…], 3 μCi/well) at 37° C. for 15, 30, 60 and 120 min. Tumor cells were washed 3 times with chilled phosphate buffered saline (PBS) and harvested with 0.25% trypsin/0.02% ethylenediaminetetraacetic acid (EDTA) (Invitrogen). The cell suspensions were transferred to a 96-well flat bottom black plate (Nunc) and imaged by an IVIS 200 system (Caliper). Luminescent images were taken without a filter [see FIG. 2.1(a)]. The exposure time was 5 min. Then the radioactivity of the cell suspension was measured in a gamma counter (Packard, Meriden, Conn.). The in vitro cell uptake results were expressed as the percentage of the applied activity with decay correction [see FIG. 2.1(b)]. Experiments were performed twice with triplicate samples for each time point. […] More importantly, an excellent correlation has been obtained between OI and gamma counting results [see FIG. 2.1(c), r^2>0.95]. These findings lay the foundation for further in vivo studies to validate the feasibility of using OI for monitoring the nuclear reporter gene system.

[5] = biodistribution study by OI of organs and gamma counting; format: in vivo, mice
Procedure: To further compare the imaging results obtained from OI and PET, biodistribution studies were conducted. Mice were sacrificed and different organs were collected at 1 h post-injection of [^18F]FHBG. OI images were obtained for these radioactive organs and quantification analysis of optical images was performed using Living Image software version 3.1 [see FIG. 2.3(a)]. Meanwhile, the radioactivity of the organs was also measured using a gamma counter after weighing, and the radioactivity uptake in the tumor and normal tissues was calculated and expressed as a percentage of the injected radioactive dose per gram of tissue (% ID/g) [see FIG. 2.3(b)].
The ratio of kidney to tumor uptake of [^18F]FHBG at 1 h was also calculated to be 2.3 vs. 1.4, for gamma counting vs. OI quantification, respectively. This discrepancy could mainly originate from the diverse optical properties of different tissues, which ultimately affects light imaging and quantification. Compared with the C6-tk tumor, the kidney contains more hemoglobin that absorbs more optical photons. Moreover, unlike high energy gamma rays, the low energy photons have very weak tissue penetrability. Light sources deeper in the tissue contribute less for the total optical signals than those closer to the surface. Therefore the kidney/tumor ratio measured by OI is lower than that obtained by gamma counting. Overall, PET has a better quantitative capability than OI. However, radioactive OI can still serve as a qualitative or semiquantitative research tool for radioactive reporter probe studies. The radioactive OI signals also have a uniquely wide wavelength of emission spectrum (9). The emissions in the near infra-red range are especially favorable for OI in living subjects. In comparison with current reporter gene imaging using BLI probes, radioactive reporter probes may offer a better option for 3D OI reconstruction.

[6] = test system: C6-tk cells (C6 rat glioma stably transfected with HSV-sr39tk); assay: in vitro [18F]FHBG cell uptake, measured by OI and gamma counting; format: cell-based; settings: 37° C., 15-120 min
Source text: This is mainly attributed to the ability of radioactive materials to produce low energy visible photons (1.2-3.1 eV, 400-1000 nm) associated with Cerenkov or Bremsstrahlung radiation (8-11). In this research study, we further evaluated the feasibility of using OI to monitor the nuclear reporter gene/reporter probe systems. HSV1-tk and [^18F]FHBG was thus chosen as a model system in this study. The C6 rat glioma cell line stably transfected with HSV-sr39tk plasmids (C6-tk) (12) was used, and the in vitro [^18F]FHBG uptakes in C6-tk cells were measured by both an IVIS optical imaging system (Caliper) and a gamma counter (Perkin Elmer). Finally, we performed in vivo imaging studies of the reporter gene/reporter probe using both OI and PET followed by a biodistribution study.
The in vitro [^18F]FHBG cell uptake study was performed as previously described with minor modifications (12). Briefly, C6-tk cells were seeded into 12-well plates at a density of 5×10^5 cells per well 12 h prior to the experiment. The C6 cell line without transfection was used as a negative control. […] Then the radioactivity of the cell suspension was measured in a gamma counter (Packard, Meriden, Conn.). The in vitro cell uptake results were expressed as the percentage of the applied activity with decay correction [see FIG. 2.1(b)]. […]

[7] = radioactive OI and microPET of bone-seeking probe; format: in vivo, mice; settings: 0.5-2 h
Procedure: Bone-seeking PET probe, Na^18F, was also used for radioactive OI and microPET imaging studies to further confirm the use of optical signals from radioactive probes for molecular imaging.
Radioactive optical imaging: In vivo radioactive OI was also performed with an IVIS Spectrum system. Wavelength-resolved spectral imaging was carried out suing a 18 narrow bands emission filters set (490-850 nm). Animals were placed in a light-tight chamber under isofluorane anesthesia. Each acquisition, with or without filters, took 1-5 min for all studies. Images were acquired and analyzed using Living Image 3.0 software (Caliper life sciences, Hopkinton, Mass.). Quantification of Radioactive OI images was corrected in accordance with radionuclides' respective physical decay properties. Optical signal was normalized to photons per second per centimeter square per steradian (p/s/cm^2/sr). Identical setting was used for in vitro Radioactive OI. For in vivo imaging study, normal mice or mice bearing either C6-fluc or PC3 (n=3 for each imaging probe) were injected via tail vein with Na^18F (5.3-5.7 MBq, 140-150 μCi), [^18F]FDG (10.4-11.3 MBq, 280-305 μCi), Na^131I (2.2-2.3 MBq, 59-61 μCi), ^90YCl3 (1.8-2.0 MBq, 48-54 μCi) or ^90Y-RGD-BBN (2.6-3.3 MBq, 70-90 μCi). For [^18F]FDG imaging study, the mice were fasted overnight prior to the experiment.

[8] = OI, 1 h after tail vein injection

[Cl][90Y]([Cl])[Cl] [^90YCl3]
tissue accumulation [1]: accumulated in the liver as well as in the bone (femur)

[131I-].[Na+] [Na^131I]
thyroid uptake [2]: accumulated and maintained in the thyroid

Nc1nc2c(ncn2CCC(CO)C[18F])c(=O)[nH]1 (stereo not drawn) [[^18F]FHBG, 9-(4-^18F-fluoro-3-[hydroxymethyl]butyl)guanine]
tracer uptake in C6-tk tumors [3, 8]: C6-tk tumors can be clearly delineated | tracer uptake in control C6 tumors [3, 8]: minimum tracer uptakes | tumor to normal tissue (T/N) ratio ([3]; OI, 1 h post-injection): 2.6±0.5 | tumor to normal tissue (T/N) ratio ([3]; OI, 2 h post-injection): 5.1±1.1 | tumor to normal tissue (T/N) ratio ([3]; PET, 1 h post-injection): 43.2±8.4 | tumor to normal tissue (T/N) ratio ([3]; PET, 2 h post-injection): 143.0±14.8 | cell uptake of [18F]FHBG [4]: very low cell uptake | ratio of kidney to tumor uptake ([5]; 1 h, OI quantification): 1.4 | ratio of kidney to tumor uptake ([5]; 1 h, gamma counting): 2.3 | organs visible by optical imaging (biodistribution) ([5]; 1 h post-injection, excised organs): the C6-tk tumor, the kidney, and the intestine were clearly visible | clearance route ([5]; kidney vs intestine signal, 1 h): mainly through urinary excretion | cell uptake of [18F]FHBG [6]: rapid and high uptake

[18F-].[Na+] [Na^18F]
distribution of imaging signal [7]: High and consistence imaging signals were observed in the bone structures
